The CheMixHub viscosity set
± gives the uncertainty stated by the source.

Test: xn = mol fraction of the nth substance listed

In the case of `CC(Cl)(Cl)Cl` + CC(C)=O, the viscosity (298.15 K, 101.33 kPa, x1 = 0.102) is reported as 0.3356 ± 0.0039 mPa·s, the viscosity (298.15 K, 101.33 kPa, x1 = 0.2) is reported as 0.3677 ± 0.0042 mPa·s and the viscosity (298.15 K, 101.33 kPa, x1 = 0.302) is reported as 0.4042 ± 0.0045 mPa·s. The viscosity (298.15 K, 101.33 kPa, x1 = 0.401) was 0.4432 ± 0.0048 mPa·s, the viscosity (298.15 K, 101.33 kPa, x1 = 0.501) was 0.4862 ± 0.0052 mPa·s and the viscosity (298.15 K, 101.33 kPa, x1 = 0.549) was 0.5085 ± 0.0054 mPa·s. For the same compound, the viscosity (298.15 K, 101.33 kPa, x1 = 0.551) was 0.5098 ± 0.0054 mPa·s, the viscosity (298.15 K, 101.33 kPa, x1 = 0.601) was 0.5341 ± 0.0056 mPa·s and the viscosity (298.15 K, 101.33 kPa, x1 = 0.649) was 0.5591 ± 0.0058 mPa·s. For the same compound, the viscosity (298.15 K, 101.33 kPa, x1 = 0.651) was 0.56 ± 0.0058 mPa·s, the viscosity (298.15 K, 101.33 kPa, x1 = 0.701) was 0.5875 ± 0.0061 mPa·s and the viscosity (298.15 K, 101.33 kPa, x1 = 0.75) was 0.6158 ± 0.0063 mPa·s. The viscosity (298.15 K, 101.33 kPa, x1 = 0.794) was 0.6443 ± 0.0066 mPa·s and the viscosity (298.15 K, 101.33 kPa, x1 = 0.852) was 0.6824 ± 0.0069 mPa·s.

Work on `O=CO` + CC(C)=O yielded a viscosity (298.15 K, 101 kPa, x1 = 0.1014) of 0.3575 ± 0.0096 mPa·s, a viscosity (298.15 K, 101 kPa, x1 = 0.2068) of 0.4002 ± 0.011 mPa·s and a viscosity (298.15 K, 101 kPa, x1 = 0.299) of 0.4482 ± 0.012 mPa·s. The viscosity (298.15 K, 101 kPa, x1 = 0.4009) was 0.5192 ± 0.014 mPa·s, the viscosity (298.15 K, 101 kPa, x1 = 0.4945) was 0.5972 ± 0.016 mPa·s and the viscosity (298.15 K, 101 kPa, x1 = 0.6083) was 0.7312 ± 0.019 mPa·s. It also gave a viscosity (298.15 K, 101 kPa, x1 = 0.6998) of 0.8622 ± 0.023 mPa·s, a viscosity (298.15 K, 101 kPa, x1 = 0.8014) of 1.053 ± 0.028 mPa·s and a viscosity (298.15 K, 101 kPa, x1 = 0.8947) of 1.287 ± 0.034 mPa·s. The viscosity (308.15 K, 101 kPa, x1 = 0.1014) was 0.3251 ± 0.0088 mPa·s, the viscosity (308.15 K, 101 kPa, x1 = 0.2068) was 0.3639 ± 0.0098 mPa·s and the viscosity (308.15 K, 101 kPa, x1 = 0.299) was 0.4063 ± 0.011 mPa·s. For the same compound, the viscosity (308.15 K, 101 kPa, x1 = 0.4009) was 0.4659 ± 0.012 mPa·s, the viscosity (308.15 K, 101 kPa, x1 = 0.4945) was 0.5315 ± 0.014 mPa·s and the viscosity (308.15 K, 101 kPa, x1 = 0.6083) was 0.642 ± 0.017 mPa·s. For the same compound, the viscosity (308.15 K, 101 kPa, x1 = 0.6998) was 0.7455 ± 0.02 mPa·s, the viscosity (308.15 K, 101 kPa, x1 = 0.8014) was 0.906 ± 0.024 mPa·s and the viscosity (308.15 K, 101 kPa, x1 = 0.8947) was 1.079 ± 0.029 mPa·s. The viscosity (318.15 K, 101 kPa, x1 = 0.1014) was 0.2954 ± 0.008 mPa·s, the viscosity (318.15 K, 101 kPa, x1 = 0.2068) was 0.3287 ± 0.0089 mPa·s and the viscosity (318.15 K, 101 kPa, x1 = 0.299) was 0.3657 ± 0.0098 mPa·s. For the same compound, the viscosity (318.15 K, 101 kPa, x1 = 0.4009) was 0.4163 ± 0.011 mPa·s, the viscosity (318.15 K, 101 kPa, x1 = 0.4945) was 0.4726 ± 0.013 mPa·s and the viscosity (318.15 K, 101 kPa, x1 = 0.6083) was 0.5609 ± 0.015 mPa·s. For the same compound, the viscosity (318.15 K, 101 kPa, x1 = 0.6998) was 0.6457 ± 0.017 mPa·s, the viscosity (318.15 K, 101 kPa, x1 = 0.8014) was 0.7719 ± 0.021 mPa·s and the viscosity (318.15 K, 101 kPa, x1 = 0.8947) was 0.9139 ± 0.024 mPa·s.

`CC(Cl)(Cl)Cl` + CC(C)CCO gave a viscosity (298.15 K, 101 kPa, x1 = 0.113) of 3.084 ± 0.023 mPa·s, a viscosity (298.15 K, 101 kPa, x1 = 0.1681) of 2.72 ± 0.021 mPa·s and a viscosity (298.15 K, 101 kPa, x1 = 0.3013) of 2.01 ± 0.016 mPa·s. It also gave a viscosity (298.15 K, 101 kPa, x1 = 0.3885) of 1.663 ± 0.013 mPa·s, a viscosity (298.15 K, 101 kPa, x1 = 0.509) of 1.339 ± 0.011 mPa·s and a viscosity (298.15 K, 101 kPa, x1 = 0.5929) of 1.169 ± 0.01 mPa·s. The viscosity (298.15 K, 101 kPa, x1 = 0.692) was 1.035 ± 0.009 mPa·s, the viscosity (298.15 K, 101 kPa, x1 = 0.7926) was 0.913 ± 0.009 mPa·s and the viscosity (298.15 K, 101 kPa, x1 = 0.8991) was 0.817 ± 0.008 mPa·s.

`O=C(O)CC(O)(CC(=O)O)C(=O)O` + CC(O)CO showed a viscosity (298 K, 101.3 kPa, x1 = 0.333) of 2188 ± 130 mPa·s and a viscosity (323 K, 101.3 kPa, x1 = 0.333) of 571 ± 23 mPa·s.

With `CC/C(C)=N/O` + CCC(C)=O the viscosity (293.15 K, 101.3 kPa, x1 = 0.0846) was 0.459 ± 0.004 mPa·s, the viscosity (293.15 K, 101.3 kPa, x1 = 0.1716) was 0.533 ± 0.004 mPa·s and the viscosity (293.15 K, 101.3 kPa, x1 = 0.2627) was 0.625 ± 0.005 mPa·s. The viscosity (293.15 K, 101.3 kPa, x1 = 0.3557) was 0.759 ± 0.006 mPa·s, the viscosity (293.15 K, 101.3 kPa, x1 = 0.4528) was 0.922 ± 0.007 mPa·s and the viscosity (293.15 K, 101.3 kPa, x1 = 0.5541) was 1.162 ± 0.008 mPa·s. The viscosity (293.15 K, 101.3 kPa, x1 = 0.6588) was 1.511 ± 0.01 mPa·s, the viscosity (293.15 K, 101.3 kPa, x1 = 0.768) was 2.066 ± 0.014 mPa·s and the viscosity (293.15 K, 101.3 kPa, x1 = 0.8817) was 3.035 ± 0.02 mPa·s. It also gave a viscosity (298.15 K, 101.3 kPa, x1 = 0.0846) of 0.438 ± 0.004 mPa·s, a viscosity (298.15 K, 101.3 kPa, x1 = 0.1716) of 0.508 ± 0.004 mPa·s and a viscosity (298.15 K, 101.3 kPa, x1 = 0.2627) of 0.592 ± 0.005 mPa·s. For the same compound, the viscosity (298.15 K, 101.3 kPa, x1 = 0.3557) was 0.714 ± 0.005 mPa·s, the viscosity (298.15 K, 101.3 kPa, x1 = 0.4528) was 0.86 ± 0.006 mPa·s and the viscosity (298.15 K, 101.3 kPa, x1 = 0.5541) was 1.073 ± 0.008 mPa·s. For the same compound, the viscosity (298.15 K, 101.3 kPa, x1 = 0.6588) was 1.368 ± 0.009 mPa·s, the viscosity (298.15 K, 101.3 kPa, x1 = 0.768) was 1.836 ± 0.012 mPa·s and the viscosity (298.15 K, 101.3 kPa, x1 = 0.8817) was 2.619 ± 0.017 mPa·s. The viscosity (303.15 K, 101.3 kPa, x1 = 0.0846) was 0.416 ± 0.003 mPa·s, the viscosity (303.15 K, 101.3 kPa, x1 = 0.1716) was 0.479 ± 0.004 mPa·s and the viscosity (303.15 K, 101.3 kPa, x1 = 0.2627) was 0.558 ± 0.004 mPa·s. The viscosity (303.15 K, 101.3 kPa, x1 = 0.3557) was 0.667 ± 0.005 mPa·s, the viscosity (303.15 K, 101.3 kPa, x1 = 0.4528) was 0.802 ± 0.006 mPa·s and the viscosity (303.15 K, 101.3 kPa, x1 = 0.5541) was 0.987 ± 0.007 mPa·s. It also gave a viscosity (303.15 K, 101.3 kPa, x1 = 0.6588) of 1.249 ± 0.009 mPa·s, a viscosity (303.15 K, 101.3 kPa, x1 = 0.768) of 1.655 ± 0.011 mPa·s and a viscosity (303.15 K, 101.3 kPa, x1 = 0.8817) of 2.306 ± 0.015 mPa·s.

`O=CO` + CCC(C)=O gave a viscosity (298.15 K, 101 kPa, x1 = 0.1013) of 0.4271 ± 0.011 mPa·s, a viscosity (298.15 K, 101 kPa, x1 = 0.2006) of 0.4706 ± 0.013 mPa·s and a viscosity (298.15 K, 101 kPa, x1 = 0.3007) of 0.5282 ± 0.014 mPa·s. It also gave a viscosity (298.15 K, 101 kPa, x1 = 0.3962) of 0.5841 ± 0.015 mPa·s, a viscosity (298.15 K, 101 kPa, x1 = 0.4985) of 0.6726 ± 0.018 mPa·s and a viscosity (298.15 K, 101 kPa, x1 = 0.602) of 0.7807 ± 0.021 mPa·s. The viscosity (298.15 K, 101 kPa, x1 = 0.7014) was 0.9125 ± 0.024 mPa·s, the viscosity (298.15 K, 101 kPa, x1 = 0.7972) was 1.078 ± 0.029 mPa·s and the viscosity (298.15 K, 101 kPa, x1 = 0.9011) was 1.309 ± 0.035 mPa·s. For the same compound, the viscosity (308.15 K, 101 kPa, x1 = 0.1013) was 0.3863 ± 0.01 mPa·s, the viscosity (308.15 K, 101 kPa, x1 = 0.2006) was 0.4247 ± 0.011 mPa·s and the viscosity (308.15 K, 101 kPa, x1 = 0.3007) was 0.4703 ± 0.013 mPa·s. It also gave a viscosity (308.15 K, 101 kPa, x1 = 0.3962) of 0.5186 ± 0.014 mPa·s, a viscosity (308.15 K, 101 kPa, x1 = 0.4985) of 0.5915 ± 0.016 mPa·s and a viscosity (308.15 K, 101 kPa, x1 = 0.602) of 0.6799 ± 0.018 mPa·s. It also gave a viscosity (308.15 K, 101 kPa, x1 = 0.7014) of 0.787 ± 0.021 mPa·s, a viscosity (308.15 K, 101 kPa, x1 = 0.7972) of 0.9165 ± 0.024 mPa·s and a viscosity (308.15 K, 101 kPa, x1 = 0.9011) of 1.095 ± 0.029 mPa·s. The viscosity (318.15 K, 101 kPa, x1 = 0.1013) was 0.3479 ± 0.0094 mPa·s, the viscosity (318.15 K, 101 kPa, x1 = 0.2006) was 0.3801 ± 0.01 mPa·s and the viscosity (318.15 K, 101 kPa, x1 = 0.3007) was 0.4183 ± 0.011 mPa·s. The viscosity (318.15 K, 101 kPa, x1 = 0.3962) was 0.458 ± 0.012 mPa·s, the viscosity (318.15 K, 101 kPa, x1 = 0.4985) was 0.5195 ± 0.014 mPa·s and the viscosity (318.15 K, 101 kPa, x1 = 0.602) was 0.5896 ± 0.016 mPa·s. The viscosity (318.15 K, 101 kPa, x1 = 0.7014) was 0.6771 ± 0.018 mPa·s, the viscosity (318.15 K, 101 kPa, x1 = 0.7972) was 0.7866 ± 0.021 mPa·s and the viscosity (318.15 K, 101 kPa, x1 = 0.9011) was 0.9246 ± 0.025 mPa·s.
